Laboratory results as given in patent publication US7317038B2, “Nerve regeneration promoters containing semaphorin inhibitor as the active ingredient” (Dainippon Sumitomo Pharma Co., Ltd., priority 2000, dated 2008).
“Also recorded” adds a separate entry of the source.

Key:
[1] = tested on: sciatic nerves that were crushed; assay: In vivo nerve regeneration after sciatic nerve crush; settings: rat; 1 ug/day locally for 14 days; distal areas of 2 mm and 6 mm from the crush site
Protocol: Male Wister rats were purchased at 7-week-old (CHARLES RIVER JAPAN, INC.) and bred under the light and dark cycles for 12 hours. The rats had free access to solid feedstuff (CLEA Japan, Inc., CE2) and water, and were used in the experiment after about one week of preliminary breeding. Under pentbarbital anesthesia, sciatic nerve of the rat thighs was exposed, clipped for 30 sec with forceps of 5 mm width, and was thus crushed. The crush site was marked with 10-0 nylon thread. SPF-3059-1 was dissolved in PBS at 8.3 ug/ml and was locally administered to the lesion site for 14 consecutive days at a flow rate of 1 ug/day by using an osmotic pressure pump (2ML2, 5 ul/hr, alzet). PBS was administered to the controls. At Day 14 of administration, the sciatic nerves were excised and trimmed at the distal areas from the crush site (the positions of marking) by 2 mm, 6 mm and 10 mm. The incised sciatic nerves were fixed in 2.5% glutaraldehyde/0.1 M phosphate buffer for a day and a night. When they were fixed, nerves were dehydrated by alcohol and were embedded in epoxy resin. […] After the areas of sciatic nerves were measured, the myelinated fiber density was calculated by […].

[2] = target: T1, mouse semaphorin 3A (Sema3A) (Mus musculus, UniProt O08665); assay: Suppression of growth cone collapse activity of Sema3A (chick embryo dorsal root ganglions); type: cell-based
T1 sequence (O08665 21-772): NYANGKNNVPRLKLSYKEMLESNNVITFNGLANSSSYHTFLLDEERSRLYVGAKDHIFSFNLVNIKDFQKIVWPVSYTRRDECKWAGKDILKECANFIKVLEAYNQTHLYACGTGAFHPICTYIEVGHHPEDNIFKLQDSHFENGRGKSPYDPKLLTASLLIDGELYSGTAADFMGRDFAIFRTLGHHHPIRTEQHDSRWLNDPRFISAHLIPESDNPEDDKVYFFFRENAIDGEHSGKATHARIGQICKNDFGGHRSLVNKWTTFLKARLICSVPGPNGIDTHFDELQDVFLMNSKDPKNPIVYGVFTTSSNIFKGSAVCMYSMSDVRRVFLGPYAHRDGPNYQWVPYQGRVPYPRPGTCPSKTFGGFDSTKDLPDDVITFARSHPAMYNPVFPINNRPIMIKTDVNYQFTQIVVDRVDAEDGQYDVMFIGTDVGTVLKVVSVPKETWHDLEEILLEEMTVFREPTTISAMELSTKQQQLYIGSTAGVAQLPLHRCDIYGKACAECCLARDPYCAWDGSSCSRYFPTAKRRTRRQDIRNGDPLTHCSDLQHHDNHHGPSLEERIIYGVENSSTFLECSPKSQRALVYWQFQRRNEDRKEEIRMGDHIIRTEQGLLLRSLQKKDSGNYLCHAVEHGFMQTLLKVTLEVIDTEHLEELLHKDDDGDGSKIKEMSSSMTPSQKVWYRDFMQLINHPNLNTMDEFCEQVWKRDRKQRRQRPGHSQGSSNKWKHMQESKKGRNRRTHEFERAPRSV
Protocol: A 96-well plate (Sumitomo Bakelite Co., ltd. ) pre-coated with polylysine was further coated with laminine (20 μg/ml of laminine, for 1 hour at room temperature). Each well was added with 100 μl of medium (F12 medium containing 10% bovine fetal serum, 20 ng/ml of NGF, 100 units/ml of penicillin and 100 μg/ml of streptomycin) which media were then inoculated with dorsal root nerve ganglions excised from E7 (Embryonic day 7) chick embryo and were cultured for 16 to 20 hours under 5% CO2 and at 37° C. Subsequently, the object compounds were added to media at various concentrations and 2 units/ml of mouse semaphorin 3A (Sema3A) was added after cultivating for 1 hour. The cultures were further incubated for another 1 hour. Glutaraldehyde was quickly added therein after said 1 hour to make the final concentration 1%. The cultures were then left for 15 minutes at room temperature so that the tissue sections were fixed, and collapse rates of the growth cones were microscopically observed. A well with no addition of Sema3A was made the control.
The longitudinal and lateral axes in the figures represent the collapse rate of growth cones and the concentration of compounds, respectively. ●▪▴ show the results when Sema3A was added after the addition of the compounds and ◯[…]Δ show those when Sema3A was not added. Further, IC50 (μg/ml) of the inhibitors were determined by the method comprising: calculating the collapse rate of growth cone (A) % of the negative controls (neither compounds nor Sema3a was added); subsequently calculate the collapse rate of growth cone (B) % of the positive controls (compounds were not added but Sema3a was added); and the concentration was chosen for each compound from the chart where the collapse rate of growth cone met (A+B)/2(%), which was made IC50 level. The followings are the results.

COS7 cells = assay: Effect on cell proliferation (MTT); type: cell-based; settings: two days
Protocol: COS7 cells were seeded onto a 96-well plate (medium 100 μl/well) at 10000 cells per well. At the same time, SPF-3059-1 of various concentrations was added and the cells were cultivated for two days in the presence of 5% CO2 at 37° C. Each well was then added with 10 μl of MTT solution at 5 mg/ml and cultured for another one hour. Subsequently, the culture supernatant was removed and formazan (an MTT derivative produced in viable cells) accumulated in the cells was dissolved by the addition of 50 μl DMSO and then the absorbance at 570 nm was measured to determine the proliferation of COS7 cells. […] The longitudinal and lateral axes in the figure show cell proliferation and the SPF-3059-1 concentration, respectively. Besides, the standard deviation (n=4) was added to each column.
The same effect on cell proliferation as in Example 9 was examined for the compounds, SPF-3059-1, SPF-3059-2 and SPF-3059-5. The wells with these compounds were served as samples, the wells with PBS were served as control, and the wells for which the experiment was carried out without adding the cells was served as blank. IC50 (μg/ml), the inhibitory rate for cell proliferation, was determined, which is calculated by the equation shown below. The inhibitory rate for cell proliferation (%)=(1−(absorbance of a sample well−absorbance of the blank well)/(absorbance of the control well−absorbance of the blank well))×100

## CC(=O)c1c(C)c(C(=O)C2COc3cc(O)c(O)c(C(=O)O)c3C2=O)cc2c(=O)c3c(C(=O)O)c(O)c(O)cc3oc12 (centres unmarked) [SPF-3059-1]
[1]
  myelinated fiber density vs PBS-injected group: increased more
[2]; E7 chick embryo dorsal root ganglions, 2 units/ml Sema3A added 1 hour after compound, concentration where collapse rate = (A+B)/2, read-out: IC50 of inhibition of the growth cone collapse activity of Sema3A (converted)
  IC50: < 0.173 µM
[2]; chick embryo dorsal root ganglions
  inhibition of growth cone collapse activity of Sema3A (in words): inhibit the growth cone collapse activities of Sema3A in a concentration-dependent manner; also recorded: potently inhibit semaphorin
COS7 cells; Chlorocebus aethiops, COS-7, 48 h, read-out: IC50, inhibitory rate for cell proliferation
  IC50: > 300 mg/L
COS7 cells
  suppressing activity for cell proliferation (in words): no suppressing activity
